Reference: patent US6458580B1, “Fungal sulphur source and method of using the same” (Commonwealth Scientific and Industrial Research Organisation, priority 1997, dated 2002)
Where “and” joins values, the source holds several entries; their conditions need not be identical. Equal entries are not always repeated.

Key:
Cellutolytic Bacteria = experiment: Effect of infusion on cellulolytic bacteria in rumen fluid (most probable number); format: in vivo; parameters: Cellutolytic Bacteria, MPA: unit not given here; settings: individual sheep and Aver. n = 13; for Cellutolytic Bacteria, MPA: MPA infused at 192 mg Sulphur/sheep/day; for Cellutolytic Bacteria, log (+): versus control period
Description: Feed was prepared as previously described (see example 4). Initially 22 sheep were fed 1 kg of alkali straw/day in the animal house for 4 days to select out sheep not eating the diet. 19 sheep were weighted and transferred to metabolism cages and feed the alkali straw diet ad-lib. Sheep were fed and on the following day the feed refusal weighted and if less then 100 g remained a further 100 g was fed; if 100-200g of feed remained the sheep was given the same amount of feed; if over 200 g of feed was left the sheep was given 100 g less feed. Over the following week another 6 sheep were moved out of the experiment (usually due to very low or erratic intakes). […] After 14 days infusion the collection period of 7 days commenced. At the end of the collection period samples of rumen digesta were taken for microbiology and other analyses. Rumen fluid was collected and fungal zoospores and total bacteria assessed as described in example 4 (the total bacteria were assessed on the same medium but without antibiotics). Cellulolytic bacteria were assessed by a most probable number count. Rumen fluid was serially diluted and subsamples of each dilution inoculated into 5 culture tubes containing an anaerobic medium containing rumen fluid and strips of filter paper. After incubation the presence of cellulolytic bacteria was detected by degradation of the paper and the numbers of positive tubes compared to tables to give a number of these bacteria in the original sample. Following the last sampling the infusion was stopped in the first group of sheep and on the following day the infusion treatment was begun in the other group of seven sheep. The second period (the crossover) was conducted in the same way as the first period with the same samples being taken at the same times.

[1] = Effect of infusion on feed intake and digestibility; format: in vivo, sheep; settings: for Digested DM, MPA / Digestibility (% DM), MPA / Intake DM, MPA: MPA infused at 192 mg Sulphur/sheep/day; for Digested DM, MPA / Digestibility (% DM), MPA / Intake DM, MPA / Digested DM, % (+) / Digestibility, % (+) / Intake DM, % (+) increase after infusion of MPA: individual sheep and Aver. n = 13; for Digested DM, % (+) / Digestibility, % (+) / Intake DM, % (+) increase after infusion of MPA: versus control period
Description: Feed was prepared as previously described (see example 4). Initially 22 sheep were fed 1 kg of alkali straw/day in the animal house for 4 days to select out sheep not eating the diet. 19 sheep were weighted and transferred to metabolism cages and feed the alkali straw diet ad-lib. Sheep were fed and on the following day the feed refusal weighted and if less then 100 g remained a further 100 g was fed; if 100-200g of feed remained the sheep was given the same amount of feed; if over 200 g of feed was left the sheep was given 100 g less feed. Over the following week another 6 sheep were moved out of the experiment (usually due to very low or erratic intakes). […] After 14 days infusion the collection period of 7 days commenced. Feed refusals were weighted, recorded, and a sample of up to 200 g/day pooled for subsequent analyses. Spilt feed was collected daily, weighted, recorded, and discarded. Faeces were collected with separators that excluded urine. The faeces were weighed and sub-sampled and pooled for subsequent analyses. Pooled faeces and feed were stored at −20° C. and then dried in a hot air oven (faeces were initially dried at 70° C.) at 100° C. cooled and weighted to determine dry weight (DM). Following the last sampling the infusion was stopped in the first group of sheep and on the following day the infusion treatment was begun in the other group of seven sheep. The second period (the crossover) was conducted in the same way as the first period with the same samples being taken at the same times.

rumen fungi = experiment: Effect of different intra-ruminal doses on fungal zoospore numbers in the rumen; format: in vivo, sheep
Description: Six cross-bred sheep [[…]] having rumen cannula were moved metabolism cages equipped with automatic feeders. They were given eight equal buckets of feed a day (three hourly) and offered water ad-lib. The sheep were offered 1.1 kg of a low sulphur feed (see below). After a period of three weeks on the diet rumen digesta was collected and rumen fluid (150 ml)was taken for zoospore counts. (An extra 100 ml of rumen digest was taken from each animal combined and mixed and 100 ml returned to each rumen to minimise differences between animals.) Zoospores were assessed by standard methods for handling anaerobic fungi. Serial dilutions of rumen fluid were prepared using an anaerobic diluent. Agar roll tubes were inoculated using a syringe with 0.2 ml of either a dilution of rumen fluid or undiluted rumen fluid. The media used was one mimicking the rumen environment but without added rumen fluid and with antibiotics (penicillin and streptomycin) added to stop overgrowth by rumen bacteria. After incubation the number of thallus forming units were counted and the number of zoospores in the rumen fluid calculated. […] The sheep were initially infused at the rate of 0.4 mMoles sulphur per day per 4 liters (ie 0.1 mM in rumen) This was equivalent to 12.67 mg Sulphur/day. The same protocols were used with successively higher doses. […] Each infusion was for one weeks before sampling rumen fluid and infusing the higher dose. […] Wheat straw was milled and approximately 40 kg quantities were transferred from the Gell feed mill to a mixer where 4 l of 40% NaOH was added while mixing. The feed was bagged (approximately two bags per 40 kg) and left for several days before a minerals mix was added. Two bags were placed in the mixer and the compounds in Table 3 were added. Trace elements were made up in 140 ml in water and were added to the urea which was previously dissolved in 25 Liters of water. This solution was then added to two bags of alkali treated feed while mixing. The remaining dry chemicals were mixed and the appropriate amount added (1.638 kg) onto the mixing feed. […]

SMILES: O=C(O)CCS [MPA, 3-mercaptopropanoic acid]
- Cellutolytic Bacteria, MPA (Cellutolytic Bacteria): 6.96 × 10^8 and 0.556 × 10^8 and 4.42 × 10^8 and 1.84 × 10^8 and 2.173 × 10^8 and 3.447 × 10^8 and 1.086 × 10^8 and 0.912 × 10^8 and 3.219 × 10^8 (3×) and 18.37 × 10^8 and 3.22 × 10^8
- Cellutolytic Bacteria, MPA (Cellutolytic Bacteria; mean): 4.05 × 10^8
- Cellutolytic Bacteria, log (+) (Cellutolytic Bacteria): 0.58 log and −0.52 log and 0.38 log and −0.24 log (2×) and 0.07 log and 0.50 log and 0.12 log and 1.76 log and 0.76 log and 1.00 log and 0.62 log and 0.47 log
- Cellutolytic Bacteria, log (+) (Cellutolytic Bacteria; mean): 0.40 log
- response in digestive performance to infusion ([1]; 192 mg Sulphur/day/sheep, with the exception of one animal): strong, positive, response
- Digested DM, MPA ([1]; Table 4): 357.26 g/day and 603.65 g/day and 558.00 g/day and 518.94 g/day and 806.76 g/day and 603.24 g/day and 630.64 g/day and 662.31 g/day and 673.01 g/day and 657.21 g/day and 714.69 g/day and 347.27 g/day and 414.97 g/day
- Digestibility (% DM), MPA ([1]; Table 4): 50.799 % DM and 51.891 % DM and 45.708 % DM and 52.812 % DM and 58.076 % DM and 53.589 % DM and 46.808 % DM and 51.433 % DM and 53.840 % DM and 51.933 % DM and 48.119 % DM and 54.648 % DM and 51.522 % DM
- Intake DM, MPA ([1]; Table 4): 703 g/day and 1163 g/day and 1221 g/day and 983 g/day and 1389 g/day and 1126 g/day and 1347 g/day and 1288 g/day and 1250 g/day and 1265 g/day and 1485 g/day and 635 g/day and 805 g/day
- Digested DM, MPA ([1]; Table 4, mean of 13 sheep): 581 g/day
- Digestibility (% DM), MPA ([1]; Table 4, mean of 13 sheep): 51.6 % DM
- Intake DM, MPA ([1]; Table 4, mean of 13 sheep): 1128 g/day
- Digested DM, % (+) ([1]; Table 4): 38.13% and 51.61% and 32.51% and 37.28% and 41.04% and 36.94% and 24.76% and 17.23% and 46.34% and 40.49% and 9.57% and 38.47% and 63.31%
- Digestibility, % (+) ([1]; Table 4): 5.019% and 7.795% and 2.610% and 1.453% and 5.112% and 7.462% and 2.544% and 0.444% and 2.855% and 4.777% and 0.002% and 7.459% and 7.799%
- Intake DM, % (+) increase after infusion of MPA ([1]; Table 4): 24.5% and 28.8% and 24.9% and 33.5% and 28.6% and 17.9% and 18.0% and 16.2% and 38.6% (2×) and 27.5% and 9.6% and 19.6%
- Digested DM, % (+) ([1]; Table 4, mean of 13 sheep): 36.75%
- Digestibility, % (+) ([1]; Table 4, mean of 13 sheep): 4.26%
- Intake DM, % (+) increase after infusion of MPA ([1]; Table 4, mean of 13 sheep): 25.1%
- Intake DM, MPA ([1]; Table 5): 805 g/day and 703 g/day and 1163 g/day and 1221 g/day and 983 g/day and 1389 g/day and 1126 g/day and 1347 g/day and 1288 g/day and 1250 g/day and 1265 g/day and 1485 g/day and 635 g/day
- Intake DM, MPA ([1]; Table 5, mean): 1128 g/day
- Intake DM, % (+) increase after infusion of MPA ([1]; Table 5): 38.6% (2×) and 24.5% and 28.8% and 24.9% and 33.5% and 28.6% and 17.9% and 18.0% and 16.2% and 27.5% and 9.6% and 19.6%
- Intake DM, % (+) increase after infusion of MPA ([1]; Table 5, mean): 25.1%
- levels of fungi (rumen fungi; dose of 0.75 mM (95 mg S/day), four of the six animals): ≈ 1000 /ml
- optimum level of MPA (rumen fungi; rumen concentration, 190 mg S/day, very low S content diet): 1.5 mM
- relation between concentration of MPA in the rumen and numbers of zoospores in rumen fluid (rumen fungi; sheep on low sulphur diet (0.052% sulphur), 0-5.0 mM in rumen, seven days per dose, FIG. 3): clear dose response
